Laboratory results reported in patent US20080167284A1, “Hair And/Or Scalp Care Compositions Incorporating Visnadin” (priority 2005, published 2008).
pEC50: −log10 of the molar value.

Legend:
[1] = target: T1, Cannabinoid Receptor 1 (CB1R), human recombinant CB1 (Homo sapiens, UniProt P21554); assay: CB1R radioligand experiment on membranes from HEK293 cells over-expressing human recombinant CB1; assay type: binding; settings: human recombinant CB1, radioligand [3H]CP-55,490, n=3
T1 construct: purchased Perkin-Elmer; host or cells: HEK293
T1 sequence (P21554 whole entry): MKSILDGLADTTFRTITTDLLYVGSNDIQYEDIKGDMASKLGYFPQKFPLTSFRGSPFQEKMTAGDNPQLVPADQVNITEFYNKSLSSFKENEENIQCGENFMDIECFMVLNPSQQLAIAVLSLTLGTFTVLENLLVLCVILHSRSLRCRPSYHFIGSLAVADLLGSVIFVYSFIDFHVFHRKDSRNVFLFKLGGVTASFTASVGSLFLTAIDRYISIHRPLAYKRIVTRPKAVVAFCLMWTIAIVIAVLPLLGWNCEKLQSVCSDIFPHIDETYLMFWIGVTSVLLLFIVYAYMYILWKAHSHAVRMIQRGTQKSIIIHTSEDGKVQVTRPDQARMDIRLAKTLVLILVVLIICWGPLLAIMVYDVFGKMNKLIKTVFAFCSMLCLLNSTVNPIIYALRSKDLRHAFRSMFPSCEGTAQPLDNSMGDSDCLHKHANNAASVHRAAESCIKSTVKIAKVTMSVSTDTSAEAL
Experimental: (§1) Visnadin was evaluated for its ability to activate Cannabinoid Receptor 1 (CB1R) and Cannabinoid Receptor 2 (CB2R).
CB1R experiments were performed using membranes from HEK293 cells over-expressing human recombinant CB1, as described by the manufacturer (Perkin-Elmer) and using [3H]CP-55,490 as the radioligand.
(§2) Data of active compounds are expressed in Ki (mM) and are means±SEM of n=3 determinations.
(§3) The values that are stated for each of the compounds is an EC50 value. This is defined as the molar concentration of an agonist, which produces 50% of the maximum possible response for that agonist. The values documented are in micromolar units.

[2] = target: T2, Cannabinoid Receptor 2 (CB2R), human recombinant CB2 (Homo sapiens, UniProt P34972); assay: CB2R radioligand experiment on membranes from HEK293 cells over-expressing human recombinant CB2; assay type: binding; settings: human recombinant CB2, radioligand [3H]CP-55,495, n=3
T2 construct: purchased Perkin-Elmer; host or cells: HEK293
T2 sequence (P34972 whole entry): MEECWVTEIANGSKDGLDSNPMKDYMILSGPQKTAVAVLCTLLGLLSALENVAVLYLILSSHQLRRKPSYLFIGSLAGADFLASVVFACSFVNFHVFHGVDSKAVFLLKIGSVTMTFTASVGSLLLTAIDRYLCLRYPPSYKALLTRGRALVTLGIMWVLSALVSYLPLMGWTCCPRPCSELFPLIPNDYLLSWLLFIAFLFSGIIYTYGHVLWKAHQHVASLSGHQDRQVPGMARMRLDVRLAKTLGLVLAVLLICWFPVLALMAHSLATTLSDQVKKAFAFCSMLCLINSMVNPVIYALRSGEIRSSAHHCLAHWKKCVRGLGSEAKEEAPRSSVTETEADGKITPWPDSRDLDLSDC
Experimental: as §1
CB2R experiments were performed using membranes from HEK293 cells over-expressing human recombinant CB2, as described by the manufacturer (Perkin-Elmer), and using [3H]CP-55,495 as the radioligand.
as §2, §3

In the case of `CCC(C)C(=O)O[C@@H]1[C@H](OC(C)=O)c2c(ccc3ccc(=O)oc23)OC1(C)C` (some centres unmarked) [visnadin], the pEC50 [1] was < 4.60 and the pEC50 [2] was 4.85.
